Assay results as given in publication PMC5218480 (PLoS ONE, 2017).

Tested on: MV-4-11 cells
Test: Gene expression microarray analysis (Affymetrix PrimeView) and GSEA
Type: cell-based, human
Set-up: RFU PODN (11730768_x_at) / Fold change /veh PODN (11730768_x_at) / RFU LINC00158 (11744669_a_at) / Fold change /veh LINC00158 (11744669_a_at) / RFU DUSP10 (11751237_a_at) / Fold change /veh DUSP10 (11751237_a_at) / RFU ID3 (11757404_x_at) / Fold change /veh ID3 (11757404_x_at) / RFU PLEKHG5 (11737974_s_at) / Fold change /veh PLEKHG5 (11737974_s_at) / RFU LRRC4B (11730491_at) / Fold change /veh LRRC4B (11730491_at) / RFU GIMAP4 (11747438_a_at) / Fold change /veh GIMAP4 (11747438_a_at) / RFU KRT8 (11758183_x_at) / Fold change /veh KRT8 (11758183_x_at) / RFU CNN1 (11734310_a_at) / Fold change /veh CNN1 (11734310_a_at) / RFU VPS37D (11726825_at) / Fold change /veh VPS37D (11726825_at) / RFU C10orf10 (11716522_x_at) / Fold change /veh C10orf10 (11716522_x_at) / RFU KIR2DL2 /// KIR2DL4 /// KIR2DL5A /// KIR2DL5B /// KIR2DS1 /// KIR2DS2 /// KIR2DS3 /// KIR2DS4 /// KIR3DL3 /// KIR3DL3 /// KIR3DS1 (11738374_at) / Fold change /veh KIR2DL2 /// KIR2DL4 /// KIR2DL5A /// KIR2DL5B /// KIR2DS1 /// KIR2DS2 /// KIR2DS3 /// KIR2DS4 /// KIR3DL3 /// KIR3DL3 /// KIR3DS1 (11738374_at) / RFU C1QL1 (11718748_at) / Fold change /veh C1QL1 (11718748_at) / RFU TMPRSS4 (11747572_a_at) / Fold change /veh TMPRSS4 (11747572_a_at) / RFU HAMP (11756126_x_at) / Fold change /veh HAMP (11756126_x_at) / RFU RNFT2 (11725882_a_at) / Fold change /veh RNFT2 (11725882_a_at) / RFU NR4A2 (11747474_a_at) / Fold change /veh NR4A2 (11747474_a_at) / RFU ABCC12 (11746883_a_at) / Fold change /veh ABCC12 (11746883_a_at) / RFU TMEM136 (11760407_x_at) / Fold change /veh TMEM136 (11760407_x_at) / RFU CLDN22 /// WWC2 (11732394_at) / Fold change /veh CLDN22 /// WWC2 (11732394_at) / RFU HLA-DPB1 (11760878_x_at) / Fold change /veh HLA-DPB1 (11760878_x_at) / RFU SPINT1 (11716480_a_at) / Fold change /veh SPINT1 (11716480_a_at) / RFU GAP43 (11754022_s_at) / Fold change /veh GAP43 (11754022_s_at) / RFU A4GNT (11735810_at) / Fold change /veh A4GNT (11735810_at) / RFU PRB3 (11715151_x_at) / Fold change /veh PRB3 (11715151_x_at) / RFU TUBB4B (11761932_at) / Fold change /veh TUBB4B (11761932_at) / RFU CAPN14 (11732068_a_at) / Fold change /veh CAPN14 (11732068_a_at) / RFU TMCC2 (11721928_a_at) / Fold change /veh TMCC2 (11721928_a_at) / RFU IRGQ (11745062_a_at) / Fold change /veh IRGQ (11745062_a_at) / RFU FAM174B (11720279_a_at) / Fold change /veh FAM174B (11720279_a_at) / RFU TMPRSS4 (11748680_a_at) / Fold change /veh TMPRSS4 (11748680_a_at) / RFU FAM212B (11763350_a_at) / Fold change /veh FAM212B (11763350_a_at) / RFU PLEKHG5 (11743358_a_at) / Fold change /veh PLEKHG5 (11743358_a_at) / RFU ZSCAN30 (11745921_a_at) / Fold change /veh ZSCAN30 (11745921_a_at) / RFU CMKLR1 (11741424_a_at) / Fold change /veh CMKLR1 (11741424_a_at) / RFU LOC101060620 /// MAPK8IP1 (11723275_at) / Fold change /veh LOC101060620 /// MAPK8IP1 (11723275_at) / RFU SPTSSB (11747773_x_at) / Fold change /veh SPTSSB (11747773_x_at) / RFU PRSS12 (11739890_at) / Fold change /veh PRSS12 (11739890_at) / RFU BIN1 (11741810_x_at) / Fold change /veh BIN1 (11741810_x_at) / RFU WNT11 (11732464_a_at) / Fold change /veh WNT11 (11732464_a_at) / RFU C10orf10 (11716521_a_at) / Fold change /veh C10orf10 (11716521_a_at) / RFU C5orf56 (11738089_at) / Fold change /veh C5orf56 (11738089_at) / RFU CYB561 (11721691_x_at) / Fold change /veh CYB561 (11721691_x_at) / RFU ANKRD19P (11752326_a_at) / Fold change /veh ANKRD19P (11752326_a_at) / RFU OR2T12 /// OR2T33 /// OR2T8 (11738714_s_at) / Fold change /veh OR2T12 /// OR2T33 /// OR2T8 (11738714_s_at) / RFU VCAN (11748164_a_at) / Fold change /veh VCAN (11748164_a_at) / RFU JSRP1 (11732532_at) / Fold change /veh JSRP1 (11732532_at) / RFU KRTAP10-11 (11738290_x_at) / Fold change /veh KRTAP10-11 (11738290_x_at) / RFU MYO3A (11730013_a_at) / Fold change /veh MYO3A (11730013_a_at) / RFU EBF3 (11725865_a_at) / Fold change /veh EBF3 (11725865_a_at) / RFU CAMK2N1 (11719241_x_at) / Fold change /veh CAMK2N1 (11719241_x_at) / RFU C5orf56 (11738088_a_at) / Fold change /veh C5orf56 (11738088_a_at) / RFU OLFML3 (11715873_a_at) / Fold change /veh OLFML3 (11715873_a_at) / RFU LOC100653217 /// NTM (11731650_a_at) / Fold change /veh LOC100653217 /// NTM (11731650_a_at) / RFU MAPK11 (11762145_a_at) / Fold change /veh MAPK11 (11762145_a_at) / RFU FIZ1 (11724087_x_at) / Fold change /veh FIZ1 (11724087_x_at) / RFU OASL (11726364_x_at) / Fold change /veh OASL (11726364_x_at) / RFU SOX15 (11748057_x_at) / Fold change /veh SOX15 (11748057_x_at) / RFU CD79A (11719716_a_at) / Fold change /veh CD79A (11719716_a_at) / RFU HIST1H1D (11736915_at) / Fold change /veh HIST1H1D (11736915_at) / RFU CASKIN2 (11723855_a_at) / Fold change /veh CASKIN2 (11723855_a_at) / RFU LOC730098 (11760151_x_at) / Fold change /veh LOC730098 (11760151_x_at) / RFU OR4N2 (11742367_at) / Fold change /veh OR4N2 (11742367_at) / RFU PRRT2 (11749266_a_at) / Fold change /veh PRRT2 (11749266_a_at) / RFU SNX32 (11753110_a_at) / Fold change /veh SNX32 (11753110_a_at) / RFU CDHR5 (11726645_a_at) / Fold change /veh CDHR5 (11726645_a_at) / RFU RCAN1 (11760418_a_at) / Fold change /veh RCAN1 (11760418_a_at) / RFU FAM167A (11723789_a_at) / Fold change /veh FAM167A (11723789_a_at) / RFU FAM26E (11764081_at) / Fold change /veh FAM26E (11764081_at) / RFU ISYNA1 (11749810_s_at) / Fold change /veh ISYNA1 (11749810_s_at) / RFU ACY1 (11761880_at) / Fold change /veh ACY1 (11761880_at) / RFU 11764098_at / Fold change /veh 11764098_at / RFU SAMD14 (11745864_x_at) / Fold change /veh SAMD14 (11745864_x_at) / RFU NPB (11741838_a_at) / Fold change /veh NPB (11741838_a_at) / RFU TMPRSS6 (11731388_a_at) / Fold change /veh TMPRSS6 (11731388_a_at) / RFU KRTAP10-2 (11738614_at) / Fold change /veh KRTAP10-2 (11738614_at) / RFU ARHGAP8 /// PRR5-ARHGAP8 (11727945_x_at) / Fold change /veh ARHGAP8 /// PRR5-ARHGAP8 (11727945_x_at) / RFU KRTAP5-7 /// NADSYN1 (11734609_at) / Fold change /veh KRTAP5-7 /// NADSYN1 (11734609_at) / RFU RASL12 (11751679_a_at) / Fold change /veh RASL12 (11751679_a_at) / RFU CDKN2B (11736163_a_at) / Fold change /veh CDKN2B (11736163_a_at) / RFU PRF1 (11729649_at) / Fold change /veh PRF1 (11729649_at) / RFU, ZNF638 /// ZNF638-IT1 / Fold change vs veh, ZNF638 /// ZNF638-IT1 / RFU, PANK3 / Fold change vs veh, PANK3 / RFU, SH3YL1 / Fold change vs veh, SH3YL1 / RFU, ZEB2 / Fold change vs veh, ZEB2 / RFU, NRIP1 / Fold change vs veh, NRIP1 / RFU, PTTG1IP / Fold change vs veh, PTTG1IP / RFU, CAPN2 / Fold change vs veh, CAPN2 / RFU, MED14 / Fold change vs veh, MED14 / RFU, SNORA58 / Fold change vs veh, SNORA58 / RFU, C1orf63 / Fold change vs veh, C1orf63 / RFU, LRRFIP1 / Fold change vs veh, LRRFIP1 / RFU, NDUFAF7 / Fold change vs veh, NDUFAF7 / RFU, SLC12A2 / Fold change vs veh, SLC12A2 / RFU, IBTK / Fold change vs veh, IBTK / RFU, ESF1 / Fold change vs veh, ESF1 / Fold change vs veh, TMEM50B / RFU, TAOK1 / Fold change vs veh, TAOK1 / RFU, ACBD3 / Fold change vs veh, ACBD3 / RFU, TMA16 / Fold change vs veh, TMA16 / RFU, RWDD3 / Fold change vs veh, RWDD3 / RFU, BCAT1 / Fold change vs veh, BCAT1 / RFU, EDEM3 / Fold change vs veh, EDEM3 / RFU, TMEM33 / Fold change vs veh, TMEM33 / RFU, WDR75 / Fold change vs veh, WDR75 / RFU, AHCTF1 / Fold change vs veh, AHCTF1 / RFU, TFRC / Fold change vs veh, TFRC / RFU, ZDHHC17 / Fold change vs veh, ZDHHC17 / RFU, NOM1 / Fold change vs veh, NOM1 / RFU, ARL8B / Fold change vs veh, ARL8B / RFU, ZBTB11 / Fold change vs veh, ZBTB11 / RFU, TAMM41 / Fold change vs veh, TAMM41 / RFU, KIAA1704 /// LOC100996395 / Fold change vs veh, KIAA1704 /// LOC100996395 / RFU, ING1 / Fold change vs veh, ING1 / RFU, TRMT61B / Fold change vs veh, TRMT61B / RFU, FUBP3 / Fold change vs veh, FUBP3 / RFU, TP53 / Fold change vs veh, TP53 / RFU, TNKS2 / Fold change vs veh, TNKS2 / RFU, ZFP14 / Fold change vs veh, ZFP14 / RFU, ACTR2 / Fold change vs veh, ACTR2 / RFU, PPP3R1 / Fold change vs veh, PPP3R1 / RFU, PIK3R1 / Fold change vs veh, PIK3R1 / RFU, HNRNPA1 / Fold change vs veh, HNRNPA1 / RFU, RNF170 / Fold change vs veh, RNF170 / RFU, ZNF28 / Fold change vs veh, ZNF28 / RFU, RNGTT / Fold change vs veh, RNGTT / RFU, OGT / Fold change vs veh, OGT / RFU, BRD1 / Fold change vs veh, BRD1 / RFU, MARS / Fold change vs veh, MARS / RFU, ZNF655 / Fold change vs veh, ZNF655 / RFU, FAHD1 / Fold change vs veh, FAHD1 / RFU, BDP1 / Fold change vs veh, BDP1 / RFU, LRRCC1 / Fold change vs veh, LRRCC1 / RFU, ARID1A / Fold change vs veh, ARID1A / RFU, ZNF146 / Fold change vs veh, ZNF146 / RFU, ZNF330 / Fold change vs veh, ZNF330 / RFU, GPN3 / Fold change vs veh, GPN3 / RFU, C9orf123 / Fold change vs veh, C9orf123 / RFU, N4BP2L2 / Fold change vs veh, N4BP2L2 / RFU, ARFIP1 / Fold change vs veh, ARFIP1 / RFU, FAM179B / Fold change vs veh, FAM179B / RFU, BCL10 / Fold change vs veh, BCL10 / RFU, UHRF1BP1L / Fold change vs veh, UHRF1BP1L / RFU, BET1 / Fold change vs veh, BET1 / RFU, CNOT2 / Fold change vs veh, CNOT2 / RFU, ZNF268 / Fold change vs veh, ZNF268 / Fold change vs veh, ZNF507 / RFU, DGCR2 / Fold change vs veh, DGCR2 / RFU, WDSUB1 / Fold change vs veh, WDSUB1 / Fold change vs veh, HSP90B1 /// MIR3652 / RFU, ADSS / Fold change vs veh, ADSS / RFU, GK / Fold change vs veh, GK / RFU, ZNF148 / Fold change vs veh, ZNF148 / RFU, TAF9 / Fold change vs veh, TAF9 / RFU, SLC1A5 / Fold change vs veh, SLC1A5 / RFU, SLMO2 / Fold change vs veh, SLMO2 / RFU, ABCC4 / Fold change vs veh, ABCC4 / RFU, LOC101060439 /// RAP1B / Fold change vs veh, LOC101060439 /// RAP1B / RFU, RFX7 / Fold change vs veh, RFX7 / RFU, GTPBP10 / Fold change vs veh, GTPBP10 / RFU, CNEP1R1 / Fold change vs veh, CNEP1R1 / RFU, BIVM-ERCC5 /// ERCC5 / Fold change vs veh, BIVM-ERCC5 /// ERCC5 / RFU, ILF3 / Fold change vs veh, ILF3 / RFU 11762660_at / Fold change /veh 11762660_at / RFU VCAN (11757783_s_at) / Fold change /veh VCAN (11757783_s_at) / RFU DDX43 (11728927_at) / Fold change /veh DDX43 (11728927_at) / RFU KRT8 (11758188_x_at) / Fold change /veh KRT8 (11758188_x_at) / RFU NKD1 (11759106_at) / Fold change /veh NKD1 (11759106_at) / RFU SRD5A1 (11742802_a_at) / Fold change /veh SRD5A1 (11742802_a_at) / RFU TPSAB1 /// TPSB2 (11721975_s_at) / Fold change /veh TPSAB1 /// TPSB2 (11721975_s_at) / RFU GSTM3 (11746129_a_at) / Fold change /veh GSTM3 (11746129_a_at) / RFU IL23R (11737362_x_at) / Fold change /veh IL23R (11737362_x_at) / RFU TMEM51 (11727254_a_at) / Fold change /veh TMEM51 (11727254_a_at) / RFU PIWIL2 (11732686_x_at) / Fold change /veh PIWIL2 (11732686_x_at) / RFU ORM1 (11744905_x_at) / Fold change /veh ORM1 (11744905_x_at) / RFU CCDC152 (11743942_at) / Fold change /veh CCDC152 (11743942_at) / RFU ECM1 (11717891_a_at) / Fold change /veh ECM1 (11717891_a_at) / RFU IL23R (11748794_a_at) / Fold change /veh IL23R (11748794_a_at) / RFU TNFAIP8L3 (11732012_x_at) / Fold change /veh TNFAIP8L3 (11732012_x_at) / RFU MBOAT4 (11741988_at) / Fold change /veh MBOAT4 (11741988_at) / RFU 11764193_at / Fold change /veh 11764193_at / RFU TMEM53 (11763286_at) / Fold change /veh TMEM53 (11763286_at) / RFU MAGEB2 (11727129_at) / Fold change /veh MAGEB2 (11727129_at) / RFU TMEM200A (11744735_a_at) / Fold change /veh TMEM200A (11744735_a_at) / RFU CCDC152 (11751479_a_at) / Fold change /veh CCDC152 (11751479_a_at) / RFU FAM211A (11726209_a_at) / Fold change /veh FAM211A (11726209_a_at) / RFU RGS16 (11746705_a_at) / Fold change /veh RGS16 (11746705_a_at) / RFU VCAN (11755009_s_at) / Fold change /veh VCAN (11755009_s_at) / RFU RHOB (11743442_s_at) / Fold change /veh RHOB (11743442_s_at) / RFU RGS16 (11720943_a_at) / Fold change /veh RGS16 (11720943_a_at) / RFU RGS16 (11720944_at) / Fold change /veh RGS16 (11720944_at) / RFU, VPS4B / Fold change vs veh, VPS4B / RFU, CREB1 / Fold change vs veh, CREB1 / RFU, DNAJC13 / Fold change vs veh, DNAJC13 / RFU, GNAQ / Fold change vs veh, GNAQ / RFU, CDK5R1 / Fold change vs veh, CDK5R1 / RFU, ZRANB3 / Fold change vs veh, ZRANB3 / RFU, CUL4A / Fold change vs veh, CUL4A / RFU, CCNY / Fold change vs veh, CCNY / RFU, UFL1 / Fold change vs veh, UFL1 / RFU, COG3 / Fold change vs veh, COG3 / RFU, DIAPH2 / Fold change vs veh, DIAPH2 / RFU, SKA2 / Fold change vs veh, SKA2 / RFU, AFF3 / Fold change vs veh, AFF3 / RFU, LMF1 / Fold change vs veh, LMF1 / RFU, IPO11 / Fold change vs veh, IPO11 / RFU, DFFB / Fold change vs veh, DFFB / RFU, FOXP1 / Fold change vs veh, FOXP1 / RFU, CARD8 / Fold change vs veh, CARD8 / RFU, STRN3 / Fold change vs veh, STRN3 / RFU, ADK / Fold change vs veh, ADK / RFU, RASSF2 / Fold change vs veh, RASSF2 / RFU, WIPF1 / Fold change vs veh, WIPF1 / RFU, LARP1B / Fold change vs veh, LARP1B / RFU, RASA1 / Fold change vs veh, RASA1 / RFU, RB1 / Fold change vs veh, RB1 / RFU, PPFIA1 / Fold change vs veh, PPFIA1 / RFU, MAT2A / Fold change vs veh, MAT2A / RFU, CCT5 / Fold change vs veh, CCT5 / RFU, WDR92 / Fold change vs veh, WDR92 / RFU, CUX1 / Fold change vs veh, CUX1 / RFU, TTC7A / Fold change vs veh, TTC7A / RFU, TMEM135 / Fold change vs veh, TMEM135 / RFU, DEPTOR / Fold change vs veh, DEPTOR / RFU, CPM / Fold change vs veh, CPM / RFU, DNAJB6 / Fold change vs veh, DNAJB6 / RFU, CACNA2D3 / Fold change vs veh, CACNA2D3 / RFU, DTX4 / Fold change vs veh, DTX4 / RFU, TFCP2 / Fold change vs veh, TFCP2 / RFU, GMCL1 /// GMCL1P1 / Fold change vs veh, GMCL1 /// GMCL1P1 / RFU, AEBP2 / Fold change vs veh, AEBP2 / RFU, SNHG1 /// SNORD22 /// SNORD25 /// SNORD26 /// SNORD27 /// SNORD28 /// SNORD29 /// SNORD31 / Fold change vs veh, SNHG1 /// SNORD22 /// SNORD25 /// SNORD26 /// SNORD27 /// SNORD28 /// SNORD29 /// SNORD31 / Fold change (Aza/veh), C12orf56 (ProbeSet 11735607_a_at) / Fold change (ACY-1035/veh), C12orf56 (ProbeSet 11735607_a_at) / Fold change (Aza/veh), FGFR1OP (ProbeSet 11751329_s_at) / Fold change (ACY-1035/veh), FGFR1OP (ProbeSet 11751329_s_at) / Fold change (Aza/veh), VPS36 (ProbeSet 11739960_a_at) / Fold change (ACY-1035/veh), VPS36 (ProbeSet 11739960_a_at) / RFU SYPL1 (11715823_x_at) / Fold change /veh SYPL1 (11715823_x_at) / RFU IGFBP7 (11715501_s_at) / Fold change /veh IGFBP7 (11715501_s_at) / RFU REEP3 (11722064_at) / Fold change /veh REEP3 (11722064_at) / RFU IGLL1 (11728026_x_at) / Fold change /veh IGLL1 (11728026_x_at): dose or concentration left out as unconfirmed
Settings: ProbeSet 11763166_a_at; LIST B

`Nc1ccc(-c2cccs2)cc1NC(=O)c1ccc2c(c1)cc(C1CC1)n2CCN1CCOCC1` [ACY-1035] was tested, and the “Fold change vs veh, MARS” value was 1.14.
